Assay results published in patent US9877957B2, “Tetrahydroisoquinoline derivatives useful as inhibitors of diacylglyceride O-acyltransferase 2” (Merck Sharp & Dohme Corp., priority 2014, dated 2018).
pIC50: −log10 of the molar value.

Molecular target: hDGAT2 (Homo sapiens (Human), UniProt Q96PD7)
Test: DGAT2 Enzymatic Activity Assay (triolein formation, LC/MS/MS)
Type: biochemical
Conditions: Sf-9 membrane prep expressing hDGAT2; 25 μM diolein, 10 μM oleoyl-CoA; room temperature; read-out: IC50 values for inhibition of DGAT2
Description: In Vitro DGAT2 ASSAYS and Determination of IC50 Values for DGAT2 Inhibitors
Insect Cell Expression and Membrane Preparation
Sf-9 insect cells were maintained in Grace's insect cell culture medium with 10% heated-inactivated fetal bovine serum, 1% Pluronic F-68 and 0.14 μg/ml Kanamycine sulfate in Erlenmeyer flasks at 28° C. in a shaker incubator. After infection with untagged hDGAT2 baculovirus at multiplicity of infection (MOI) 0.1 for 48 hours, cells were harvested. Cell pellets were suspended in buffer containing 10 mM Tris-HCl (pH 7.5), 1 mM EDTA (pH 8.0), 250 mM sucrose and Complete Protease Inhibitor Cocktail (Roche Diagnostics Corp., Indianapolis, Ill.), and sonicated on ice. Membrane fractions were isolated by ultracentrifugation (100,000× g pellet), resuspended in the same buffer, and frozen (−80° C.) for later use. The protein concentration was determined with the BCA Protein Assay kit (Pierce Biotechnology Inc., Rockford, Ill.). Expression of protein levels was analyzed by immunoblotting with goat polyclonal DGAT2 antibody C-15 and donkey anti-goat IgG HRP (Santa Cruz Biotechnology, Inc., Santa Cruz, Calif.) followed by detection with ECL reagent (GE Healthcare, Piscataway, N.J.).
LC/MS/MS analyses were performed using Thermal Fisher's LX4-TSQ Vantage system. This system consists of an Agilent binary high-performance liquid chromatography (HPLC) pumps and a TSQ Vantage triple quadrupole MS/MS instrument. For each sample, 2 μL samples from the top organic layer of in-plate liquid-liquid extraction were injected onto a Thermo Betabasic C4 column (2.1 mm×20 mm, 5 μm particle size). The samples were then eluted using the following conditions; mobile phase: methanol/water with 0.1% ammonium format=92/8 (v/v), flow rate: 1 mL/min, temperature: 25° C. Data was acquired in positive mode using a heated electrospray ionization (HESI) interface. The operational parameters for the TSQ Vantage MS/MS instrument were a spray voltage of 3000 V, capillary temperature of 280° C., vaporizer temperature 400° C., shealth gas 60 arbitrary unit, Aux gas 40 arbitrary units, S-lens 113 and collision gas 0.16 Pascals. […] (SRM) chromatograms of triolein (Q1: 902.9>Q3:602.3) and internal standard (Q1: 902.9>Q3:602.3) were collected for 40 sec. The peak area was integrated by Xcalibur Quan software. The ratio between the triolein generated in the reaction and spiked in internal standard were used to generate percentage inhibition and IC50 values. Compound percentage inhibition was calculated by the following formula: Inhibition %=1−[(compound response−low control)/(high control−low control)]×100%. Potent compounds were titrated and IC50 were calculated by 4 parameter sigmoidal curve fitting formula.
DGAT2 Enzymatic Activity Assay
DGAT2 activity was determined by measuring the amount of enzymatic product triolein (1,2,3-Tri(cis-9-octadecenoyl)glycerol) using the membrane prep mentioned above. The assay was carried out in deep well 384 plates in a final volume of 40 μL at room temperature. The assay mixture contained the following: assay buffer (100 mM Tris·Cl, pH 7.0, 20 mM MgCl2, 5% ethanol), 25 μM of diolein, 10 μM of oleoyl-CoA and 10 ng/μL of DGAT2 membrane.

hDGAT2, sequence (Q96PD7 whole entry): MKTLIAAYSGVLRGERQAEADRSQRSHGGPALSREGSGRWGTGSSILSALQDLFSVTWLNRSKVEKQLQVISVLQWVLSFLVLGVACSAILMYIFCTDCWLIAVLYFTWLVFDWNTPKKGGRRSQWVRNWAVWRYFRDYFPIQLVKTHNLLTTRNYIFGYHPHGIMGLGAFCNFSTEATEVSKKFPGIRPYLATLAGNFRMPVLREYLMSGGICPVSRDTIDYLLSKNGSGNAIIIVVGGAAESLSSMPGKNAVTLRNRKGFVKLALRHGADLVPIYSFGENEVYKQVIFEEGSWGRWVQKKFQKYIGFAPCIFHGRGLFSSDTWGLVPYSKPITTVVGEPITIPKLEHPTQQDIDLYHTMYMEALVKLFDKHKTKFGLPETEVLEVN

| Compound | pIC50 |
| --- | --- |
| CC(C)(C)NC(=O)N1CCc2c(-c3cccc(C(F)(F)F)c3)ccc(C(=O)NCc3nnc4n3CCC4)c2C1 [Example 51, N^2-(tert-butyl)-N^8-((6,7-dihydro-5H-pyrrolo[2,1-c][1,2,4]triazol-3-yl)methyl)-5-(3-(trifluoromethyl)phenyl)-3,4-dihydroisoquinoline-2,8(1H)-dicarboxamide] | 5.69 |
| CC(C)(C)NC(=O)N1CCc2c(-c3cccc(C(F)(F)F)c3)ccc(C(=O)Nc3nonc3-c3nc4ccccc4[nH]3)c2C1 [Example 53, N^8-(4-(1H-benzo[d]imidazol-2-yl)-1,2,5-oxadiazol-3-yl)-N^2-(tert-butyl)-5-(3-(trifluoromethyl)phenyl)-3,4-dihydroisoquinoline-2,8(1H)-dicarboxamide] | 5.48 |
| CC(C)(C)NC(=O)N1CCc2c(-c3cccc(OC(F)(F)F)c3)ccc(C(=O)NCc3cn4cccnc4n3)c2C1 [Example 55, N^2-(tert-butyl)-N^8-(imidazo[1,2-a]pyrimidin-2-ylmethyl)-5-(3-(trifluoromethoxy)phenyl)-3,4-dihydroisoquinoline-2,8(1H)-dicarboxamide] | 5.67 |
| CC(C)(C)NC(=O)N1CCc2c(-c3cccc(OC(F)(F)F)c3)ccc(C(=O)N3CCCCC3c3ccccc3)c2C1 (stereo not shown) [Example 57, N-(tert-butyl)-8-(2-phenylpiperidine-1-carbonyl)-5-(3-(trifluoromethoxy)phenyl)-3,4-dihydroisoquinoline-2(1H)-carboxamide] | 5.06 |
| COc1ccc2nc(CCNC(=O)c3ccc(-c4cccc(C(F)(F)F)c4)c4c3CN(C(=O)NCC(F)(F)F)CC4)[nH]c2c1 [Example 59, N^8-(2-(6-methoxy-1H-benzo[d]imidazol-2-yl)ethyl)-N^2-(2,2,2-trifluoroethyl)-5-(3-(trifluoromethyl)phenyl)-3,4-dihydroisoquinoline-2,8(1H)-dicarboxamide] | 7.08 |
| CC(NC(=O)c1ccc(-c2cccc(C(F)(F)F)c2)c2c1CN(C(=O)NC(C)(C)C)CC2)c1nnc[nH]1 (stereo not shown) [Example 62, N^8-(1-(4H-1,2,4-triazol-3-yl)ethyl)-N^2-(tert-butyl)-5-(3-(trifluoromethyl)phenyl)-3,4-dihydroisoquinoline-2,8(1H)-dicarboxamide] | 5.42 |
| CC(C)(C)NC(=O)N1CCc2c(-c3cccc(C(F)(F)F)c3)ccc(C(=O)NC3(c4ccccn4)CC3)c2C1 [Example 63, N^2-(tert-butyl)-N^8-(1-(pyridin-2-yl)cyclopropyl)-5-(3-(trifluoromethyl)phenyl)-3,4-dihydroisoquinoline-2,8(1H)-dicarboxamide] | 5.69 |
| CC(NC(=O)c1ccc(-c2cccc(C(F)(F)F)c2)c2c1CN(C(=O)NC(C)(C)C)CC2)c1cn2ncsc2n1 (stereo not shown) [Example 64, N^2-(tert-butyl)-N^8-(1-(imidazo[2,1-b][1,3,4]thiadiazol-6-yl)ethyl)-5-(3-(trifluoromethyl)phenyl)-3,4-dihydroisoquinoline-2,8(1H)-dicarboxamide] | 6.41 |
| CC(C)(C)NC(=O)N1CCc2c(-c3cccc(C(F)(F)F)c3)ccc(C(=O)NCc3cnc4ccccn34)c2C1 [Example 66, N^2-(tert-butyl)-N^8-(imidazo[1,2-a]pyridin-3-ylmethyl)-5-(3-(trifluoromethyl)phenyl)-3,4-dihydroisoquinoline-2,8(1H)-dicarboxamide] | 7.27 |

Second part, the compound after the results:

| pIC50 | Compound |
| --- | --- |
| 5.89 | CC(CNC(=O)c1ccc(-c2cccc(C(F)(F)F)c2)c2c1CN(C(=O)NC(C)(C)C)CC2)c1ncco1 (stereo not shown) [Example 45, N^2-(tert-butyl)-N^8-(2-(oxazol-2-yl)propyl)-5-(3-(trifluoromethyl)phenyl)-3,4-dihydroisoquinoline-2,8(1H)-dicarboxamide] |
| 5.88 | CC(CNC(=O)c1ccc(-c2cccc(C(F)(F)F)c2)c2c1CN(C(=O)NC(C)(C)C)CC2)c1ccno1 (stereo not shown) [Example 46, N^2-(tert-butyl)-N^8-(2-(isoxazol-5-yl)propyl)-5-(3-(trifluoromethyl)phenyl)-3,4-dihydroisoquinoline-2,8(1H)-dicarboxamide] |
| 5.92 | Cc1nnc(CCNC(=O)c2ccc(-c3cccc(C(F)(F)F)c3)c3c2CN(C(=O)NC(C)(C)C)CC3)[nH]1 [Example 47, N^2-(tert-butyl)-N^8-(2-(5-methyl-4H-1,2,4-triazol-3-yl)ethyl)-5-(3-(trifluoromethyl)phenyl)-3,4-dihydroisoquinoline-2,8(1H)-dicarboxamide] |
| 5.85 | CC(C)(C)NC(=O)N1CCc2c(-c3cccc(C(F)(F)F)c3)ccc(C(=O)NCCn3cncn3)c2C1 [Example 48, N^8-(2-(1H-1,2,4-triazol-1-yl)ethyl)-N^2-(tert-butyl)-5-(3-(trifluoromethyl)phenyl)-3,4-dihydroisoquinoline-2,8(1H)-dicarboxamide] |
| 5.80 | CC(C)(C)NC(=O)N1CCc2c(-c3cccc(C(F)(F)F)c3)ccc(C(=O)NCCc3cn4cccnc4n3)c2C1 [Example 49, N^2-(tert-butyl)-N^8-(2-(imidazo[1,2-a]pyrimidin-2-yl)ethyl)-5-(3-(trifluoromethyl)phenyl)-3,4-dihydroisoquinoline-2,8(1H)-dicarboxamide] |
| 5.70 | Cc1noc(C)c1CCNC(=O)c1ccc(-c2cccc(C(F)(F)F)c2)c2c1CN(C(=O)NC(C)(C)C)CC2 [Example 50, N^2-(tert-butyl)-N^8-(2-(3,5-dimethylisoxazol-4-yl)ethyl)-5-(3-(trifluoromethyl)phenyl)-3,4-dihydroisoquinoline-2,8(1H)-dicarboxamide] |
| 5.62 | CC(C)(C)NC(=O)N1CCc2c(-c3cccc(C(F)(F)F)c3)ccc(C(=O)NCCc3ccc(C(F)(F)F)cc3)c2C1 [Example 52, N^2-(tert-butyl)-N^8-(4-(trifluoromethyl)phenethyl)-5-(3-(trifluoromethyl)phenyl)-3,4-dihydroisoquinoline-2,8(1H)-dicarboxamide] |
| 5.43 | CC(C)(C)NC(=O)N1CCc2c(-c3cccc(C(F)(F)F)c3)ccc(C(=O)NCCc3cnc4ccccn34)c2C1 [Example 54, N^2-(tert-butyl)-N^8-(2-(imidazo[1,2-a]pyridin-3-yl)ethyl)-5-(3-(trifluoromethyl)phenyl)-3,4-dihydroisoquinoline-2,8(1H)-dicarboxamide] |
| 5.10 | Cc1nccn1CCNC(=O)c1ccc(-c2cccc(C(F)(F)F)c2)c2c1CN(C(=O)NC(C)(C)C)CC2 [Example 56, N^2-(tert-butyl)-N^8-(2-(2-methyl-1H-imidazol-1-yl)ethyl)-5-(3-(trifluoromethyl)phenyl)-3,4-dihydroisoquinoline-2,8(1H)-dicarboxamide] |
| 7.78 | CC(C)(C)NC(=O)N1CCc2c(-c3cccc(C(F)(F)F)c3)ccc(C(=O)NCCc3nc4ccc(Cl)cc4[nH]3)c2C1 [Example 58, N^2-(tert-butyl)-N^8-(2-(6-chloro-1H-benzo[d]imidazol-2-yl)ethyl)-5-(3-(trifluoromethyl)phenyl)-3,4-dihydroisoquinoline-2,8(1H)-dicarboxamide] |
| 5.87 | Cc1nnc(CCNC(=O)c2ccc(-c3cccc(C(F)(F)F)c3)c3c2CN(C(=O)NC(C)(C)C)CC3)[nH]1 [Example 60, N^2-(tert-butyl)-N^8-(2-(5-methyl-4H-1,2,4-triazol-3-yl)ethyl)-5-(3-(trifluoromethyl)phenyl)-3,4-dihydroisoquinoline-2,8(1H)-dicarboxamide] |
| 6.61 | Cc1nonc1CNC(=O)c1ccc(-c2cccc(C(F)(F)F)c2)c2c1CN(C(=O)NC(C)(C)C)CC2 [Example 67, N^2-(tert-butyl)-N^8-((4-methyl-1,2,5-oxadiazol-3-yl)methyl)-5-(3-(trifluoromethyl)phenyl)-3,4-dihydroisoquinoline-2,8(1H)-dicarboxamide] |
| 6.32 | Cn1ccnc1CNC(=O)c1ccc(-c2cccc(C(F)(F)F)c2)c2c1CN(C(=O)NC(C)(C)C)CC2 [Example 68, N^2-(tert-butyl)-N^8-((1-methyl-1H-imidazol-2-yl)methyl)-5-(3-(trifluoromethyl)phenyl)-3,4-dihydroisoquinoline-2,8(1H)-dicarboxamide] |
